# From ChEMBL document CHEMBL1139529, “Design of small-sized libraries by combinatorial assembly of linkers and functional groups to a given scaffold: application to the structure-based optimization of a phosphodiesterase 4 inhibitor” (J Med Chem, 2005)
# Molecular target: Phosphodiesterase 4 (Bos taurus)
# Assay: In vitro inhibition of bovine smooth muscle phosphodiesterase 4
row,IC50,SMILES
1,8000 nM,COc1ccc(-c2cc(Cc3ccccc3)c(O)nn2)cc1OC
2,60000 nM,COc1ccc(-c2ccc(=O)n(CCCCCCN=C(N)N)n2)cc1OC
3,> 10000 nM,COc1ccc(-c2cc(CCCc3ccccc3)c(O)nn2)cc1OC
4,0.9 nM,COc1ccc(-c2ccc(=O)n(CCCCCc3ccccc3)n2)cc1OC
5,20 nM,COc1ccc(-c2ccc(=O)n(CCCCCCN)n2)cc1OC
6,20 nM,COc1ccc(-c2ccc(=O)n(CCCc3ccccc3)n2)cc1OC
7,60 nM,COc1ccc(-c2ccc(=O)n(Cc3ccccc3)n2)cc1OC
8,2000 nM,COc1ccc(-c2ccc(O)nn2)cc1OC
9,80 nM,COc1ccc(-c2ccc(=O)n(CCCCCCc3ccccc3)n2)cc1OC
